Laboratory results from ChEMBL document CHEMBL3112480, “γ-Alkylidene-γ-lactones and isobutylpyrrol-2(5H)-ones analogues to rubrolides as inhibitors of biofilm formation by gram-positive and gram-negative bacteria” (Bioorg Med Chem Lett, 2014).
≈ marks a conversion by molar mass, not a printed value.

Columns and labels:
Streptococcus mutans [1] = assay: Antibacterial activity against Streptococcus mutans OMZ175 assessed as inhibition of biofilm formation at 6 uM relative to control; type: functional
Streptococcus mutans [2] = assay: Antibacterial activity against Streptococcus mutans ATCC 25175 assessed as effect on planktonic growth at 21.9 ug/ml after 20 hrs relative to control; type: functional
Streptococcus mutans [3] = assay: Antibacterial activity against Streptococcus mutans ATCC 25175 assessed as effect on planktonic growth at 43.8 ug/ml after 20 hrs relative to control; type: functional
Streptococcus mutans [4] = assay: Antibacterial activity against Streptococcus mutans ATCC 25175 assessed as effect on planktonic growth at 87.5 ug/ml after 20 hrs relative to control; type: functional
Staphylococcus aureus [5] = assay: Antibacterial activity against Staphylococcus aureus ATCC 25923 assessed as effect on planktonic growth at 0.17 ug/ml after 20 hrs relative to control; type: functional
Staphylococcus aureus [6] = assay: Antibacterial activity against Staphylococcus aureus ATCC 25923 assessed as effect on planktonic growth at 0.34 ug/ml after 20 hrs relative to control; type: functional
Staphylococcus aureus [7] = assay: Antibacterial activity against Staphylococcus aureus ATCC 25923 assessed as effect on planktonic growth at 0.68 ug/ml after 20 hrs relative to control; type: functional
Staphylococcus aureus [8] = assay: Antibacterial activity against Staphylococcus aureus ATCC 25923 assessed as effect on planktonic growth at 1.37 ug/ml after 20 hrs relative to control; type: functional
Staphylococcus aureus [9] = assay: Antibacterial activity against Staphylococcus aureus ATCC 25923 assessed as effect on planktonic growth at 5.5 ug/ml after 20 hrs relative to control; type: functional
Staphylococcus aureus [10] = assay: Antibacterial activity against Staphylococcus aureus ATCC 25923 assessed as effect on planktonic growth at 2.73 ug/ml after 20 hrs relative to control; type: functional
Staphylococcus aureus [11] = assay: Antibacterial activity against Staphylococcus aureus ATCC 25923 assessed as effect on planktonic growth at 10.9 ug/ml after 20 hrs relative to control; type: functional
Staphylococcus aureus [12] = assay: Antibacterial activity against Staphylococcus aureus ATCC 25923 assessed as effect on planktonic growth at 21.9 ug/ml after 20 hrs relative to control; type: functional
Staphylococcus aureus [13] = assay: Antibacterial activity against Staphylococcus aureus ATCC 25923 assessed as effect on planktonic growth at 43.8 ug/ml after 20 hrs relative to control; type: functional
Staphylococcus aureus [14] = assay: Antibacterial activity against Staphylococcus aureus ATCC 25923 assessed as effect on planktonic growth at 87.5 ug/ml after 20 hrs relative to control; type: functional
Pseudomonas aeruginosa [15] = assay: Antibacterial activity against Pseudomonas aeruginosa ATCC 27853 assessed as effect on planktonic growth at 0.17 ug/ml after 20 hrs relative to control; type: functional
Pseudomonas aeruginosa [16] = assay: Antibacterial activity against Pseudomonas aeruginosa ATCC 27853 assessed as effect on planktonic growth at 0.34 ug/ml after 20 hrs relative to control; type: functional
Pseudomonas aeruginosa [17] = assay: Antibacterial activity against Pseudomonas aeruginosa ATCC 27853 assessed as effect on planktonic growth at 0.68 ug/ml after 20 hrs relative to control; type: functional
Pseudomonas aeruginosa [18] = assay: Antibacterial activity against Pseudomonas aeruginosa ATCC 27853 assessed as effect on planktonic growth at 1.37 ug/ml after 20 hrs relative to control; type: functional
Pseudomonas aeruginosa [19] = assay: Antibacterial activity against Pseudomonas aeruginosa ATCC 27853 assessed as effect on planktonic growth at 2.73 ug/ml after 20 hrs relative to control; type: functional
Pseudomonas aeruginosa [20] = assay: Antibacterial activity against Pseudomonas aeruginosa ATCC 27853 assessed as effect on planktonic growth at 5.5 ug/ml after 20 hrs relative to control; type: functional
Pseudomonas aeruginosa [21] = assay: Antibacterial activity against Pseudomonas aeruginosa ATCC 27853 assessed as effect on planktonic growth at 10.9 ug/ml after 20 hrs relative to control; type: functional
Pseudomonas aeruginosa [22] = assay: Antibacterial activity against Pseudomonas aeruginosa ATCC 27853 assessed as effect on planktonic growth at 21.9 ug/ml after 20 hrs relative to control; type: functional
Pseudomonas aeruginosa [23] = assay: Antibacterial activity against Pseudomonas aeruginosa ATCC 27853 assessed as effect on planktonic growth at 43.8 ug/ml after 20 hrs relative to control; type: functional
Pseudomonas aeruginosa [24] = assay: Antibacterial activity against Pseudomonas aeruginosa ATCC 27853 assessed as effect on planktonic growth at 87.5 ug/ml after 20 hrs relative to control; type: functional
[25] = test system: Staphylococcus epidermidis; assay: Antibacterial activity against Staphylococcus epidermidis ATCC 35547 assessed as effect on planktonic growth at 0.17 ug/ml after 20 hrs relative to control; type: functional
[26] = test system: Staphylococcus epidermidis; assay: Antibacterial activity against Staphylococcus epidermidis ATCC 35547 assessed as effect on planktonic growth at 0.34 ug/ml after 20 hrs relative to control; type: functional
[27] = test system: Staphylococcus epidermidis; assay: Antibacterial activity against Staphylococcus epidermidis ATCC 35547 assessed as effect on planktonic growth at 0.68 ug/ml after 20 hrs relative to control; type: functional
[28] = test system: Staphylococcus epidermidis; assay: Antibacterial activity against Staphylococcus epidermidis ATCC 35547 assessed as effect on planktonic growth at 1.37 ug/ml after 20 hrs relative to control; type: functional
[29] = test system: Staphylococcus epidermidis; assay: Antibacterial activity against Staphylococcus epidermidis ATCC 35547 assessed as effect on planktonic growth at 2.73 ug/ml after 20 hrs relative to control; type: functional
[30] = test system: Staphylococcus epidermidis; assay: Antibacterial activity against Staphylococcus epidermidis ATCC 35547 assessed as effect on planktonic growth at 5.5 ug/ml after 20 hrs relative to control; type: functional
[31] = test system: Staphylococcus epidermidis; assay: Antibacterial activity against Staphylococcus epidermidis ATCC 35547 assessed as effect on planktonic growth at 10.9 ug/ml after 20 hrs relative to control; type: functional
[32] = test system: Staphylococcus epidermidis; assay: Antibacterial activity against Staphylococcus epidermidis ATCC 35547 assessed as effect on planktonic growth at 21.9 ug/ml after 20 hrs relative to control; type: functional
[33] = test system: Staphylococcus epidermidis; assay: Antibacterial activity against Staphylococcus epidermidis ATCC 35547 assessed as effect on planktonic growth at 43.8 ug/ml after 20 hrs relative to control; type: functional
[34] = test system: Staphylococcus epidermidis; assay: Antibacterial activity against Staphylococcus epidermidis ATCC 35547 assessed as effect on planktonic growth at 87.5 ug/ml after 20 hrs relative to control; type: functional
Staphylococcus aureus [35] = assay: Antibacterial activity against Staphylococcus aureus ATCC 25923 assessed as inhibition of biofilm formation at 44 ug/ml after 20 hrs by crystal-violet staining method relative to control; type: functional; details: ATCC 25923, 20 h
Pseudomonas aeruginosa [36] = assay: Antibacterial activity against Pseudomonas aeruginosa ATCC 27853 assessed as inhibition of biofilm formation after 20 hrs by crystal-violet staining method; type: functional, organism-based
[37] = test system: Staphylococcus epidermidis; assay: Antibacterial activity against Staphylococcus epidermidis ATCC 35547 assessed as inhibition of biofilm formation after 20 hrs by crystal-violet staining method; type: functional, organism-based
Streptococcus mutans [38] = assay: Antibacterial activity against Streptococcus mutans ATCC 25175 assessed as effect on planktonic growth at 0.17 ug/ml after 20 hrs relative to control; type: functional
Streptococcus mutans [39] = assay: Antibacterial activity against Streptococcus mutans ATCC 25175 assessed as effect on planktonic growth at 0.34 ug/ml after 20 hrs relative to control; type: functional
Streptococcus mutans [40] = assay: Antibacterial activity against Streptococcus mutans ATCC 25175 assessed as effect on planktonic growth at 0.68 ug/ml after 20 hrs relative to control; type: functional
Streptococcus mutans [41] = assay: Antibacterial activity against Streptococcus mutans ATCC 25175 assessed as effect on planktonic growth at 1.37 ug/ml after 20 hrs relative to control; type: functional
Streptococcus mutans [42] = assay: Antibacterial activity against Streptococcus mutans ATCC 25175 assessed as effect on planktonic growth at 2.73 ug/ml after 20 hrs relative to control; type: functional
Streptococcus mutans [43] = assay: Antibacterial activity against Streptococcus mutans ATCC 25175 assessed as effect on planktonic growth at 5.5 ug/ml after 20 hrs relative to control; type: functional
Streptococcus mutans [44] = assay: Antibacterial activity against Streptococcus mutans ATCC 25175 assessed as effect on planktonic growth at 10.9 ug/ml after 20 hrs relative to control; type: functional

Work on `O=C1C=C/C(=C/Br)O1` yielded an inhibition at 6 µM (Streptococcus mutans [1]) of 26%.
`COc1ccc(C)cc1C1=C(Br)C(=O)N(CC(C)C)/C1=C/c1ccccc1Cl` showed an Activity (Streptococcus mutans [2]) of 13.8%, an Activity (Streptococcus mutans [3]) of 20.1% and an Activity (Streptococcus mutans [4]) of 20.1%. For the same molecule, the Activity (Staphylococcus aureus [5]) was -6.6%, the Activity (Staphylococcus aureus [6]) was -6.6% and the Activity (Staphylococcus aureus [7]) was -3.6%. The Activity (Staphylococcus aureus [8]) was -4.6%, the Activity (Staphylococcus aureus [9]) was -9.4% and the Activity (Staphylococcus aureus [10]) was -10.4%. It also gave an Activity (Staphylococcus aureus [11]) of -11.2%, an Activity (Staphylococcus aureus [12]) of -13.2% and an Activity (Staphylococcus aureus [13]) of 4.6%. The Activity (Staphylococcus aureus [14]) was 20.1%, the Activity (Pseudomonas aeruginosa [15]) was 1.2% and the Activity (Pseudomonas aeruginosa [16]) was 0.6%. For the same molecule, the Activity (Pseudomonas aeruginosa [17]) was -2.7%, the Activity (Pseudomonas aeruginosa [18]) was -10% and the Activity (Pseudomonas aeruginosa [19]) was -18.8%. It also gave an Activity (Pseudomonas aeruginosa [20]) of -17.8%, an Activity (Pseudomonas aeruginosa [21]) of -15% and an Activity (Pseudomonas aeruginosa [22]) of -13.2%. For the same molecule, the Activity (Pseudomonas aeruginosa [23]) was -7.7%, the Activity (Pseudomonas aeruginosa [24]) was -4.3% and the Activity [25] was -2.9%. The Activity [26] was 3.6%, the Activity [27] was -6.1% and the Activity [28] was -2.3%. It also gave an Activity [29] of 0.4%, an Activity [30] of -1% and an Activity [31] of 6%. For the same molecule, the Activity [32] was 5.9%, the Activity [33] was 26.9% and the Activity [34] was 23.5%. The inhibition at 44 µg/mL (Staphylococcus aureus [35]) was 34%, the inhibition (Pseudomonas aeruginosa [36]) was “Dose-dependent effect” and the IC50 (Pseudomonas aeruginosa [36]; ATCC 27853, 20 h) was 1.4 µg/mL (≈ 3.04 µM). For the same molecule, the inhibition [37] was “Dose-dependent effect”, the IC50 ([37]; ATCC 35547, 20 h) was > 87.5 µg/mL and the Activity (Streptococcus mutans [38]) was 11.9%. The Activity (Streptococcus mutans [39]) was 18.1%, the Activity (Streptococcus mutans [40]) was 9% and the Activity (Streptococcus mutans [41]) was 20.6%. It also gave an Activity (Streptococcus mutans [42]) of 24.3%, an Activity (Streptococcus mutans [43]) of 25.4% and an Activity (Streptococcus mutans [44]) of 18.6%.
